Test results as given in patent publication US7998989B2, “2-Imino-1,3-thiazoline-based compounds and T-type calcium channel inhibitors containing the same” (Korea Institute of Science and Technology, priority 2007, dated 2011).

What was measured:
[1] = biological target: T1, α1G T-type calcium channel (Homo sapiens, UniProt O43497); experiment: Assay for % inhibiting activity against T-type calcium channel using FDSS6000 (fluo-3 calcium imaging, KCl activation); type: cell-based; conditions: 10 μM; HEK293 cells stably expressing α1G T-type calcium channel and Kir2.1; compounds of the examples
T1 construct: host or cells: HEK293
Method in brief: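 HEK293 cells stably expressing α1G and Kir2.1 loaded with 5 μM fluo-3/AM, then in HEPES buffer (pH 7.4) with 10 mM CaCl2. Compound applied 75 s before 75 mM KCl; intracellular Ca2+ read as […] area, % inhibition relative to untreated control.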

[2] = biological target: T1, α1G T-type calcium channel; experiment: Electrophysiological whole cell patch clamp measurement of T-type calcium channel current in HEK293 cells; type: cell-based; conditions: HEK293 cells expressing α1G; for HEK293cell (% Inhibition) 10 μM: inhibition of peak current; for IC50: read-out: IC50 (a1G)
Protocol: In the present invention, in order to examine an efficient inhibitor against the T-type calcium channel, a primary assay for T-type calcium channel inhibiting activity was conducted by a high-efficient assay using FDSS6000, wherein mammal HEK293 cell lines (originated from human kidney carcinoma cells) that specifically express α1G of the T-type calcium channel was used for primary assay. Through the primary assay, compounds that show meaningful inhibition effects were selected. The selected compounds were used in a second assay for T-type calcium channel inhibiting activity using an electrophysiological whole cell patch clamp method, wherein mammal HEK293 cell lines (originated from human kidney carcinoma cells) that specifically express α1G of the T-type calcium channel was used for the second assay. Mibefradil, which had been developed as a T-type calcium channel inhibitor, was used as a reference.
10% Fetal bovine serum (FBS) and 1% penicillin/streptomycin (v/v) were added to Dulbecco's modified Eagle's medium (DMEM), to be used as a media solution. The cells were cultured in an incubator under a wet condition of 95% air/5% CO2 and a temperature of 36.5° C. The media solution was refreshed every 3 or 4 days, and the cells were sub-cultured every week. Only the cells that expressed α1G T-type calcium channel were cultured using a G-418 (0.5 mg/ml) solution. The recording of the cells used in the T-type calcium channel activity analysis was conducted at 2-7 days after the cells were culturing on a cover slip coated with poly-L-lysine (0.5 mg/ml) when conducting every sub-culture. For analysis at a single cell level, the T-type calcium channel current was measured by an electrophysiological whole cell patch clamp method using EPC-9 amplifier (HEKA, German).
As solutions for analyzing T-type calcium channel activity, a solution including NaCl 140 mM, CaCl2 2 mM, and HEPES10 mM (pH 7.4, Sigma; 4-(2-hydroxyethyl)piperazine-1-ethanesulfonic acid) was used as an extracellular solution, and a solution including KCl 130 mM, HEPES 10 mM (Sigma), EGTA 11 mM (ethylene glycol-bis(2-aminoethylether)-N,N,N′,N′-tetraacetic acid, Sigma), and MgATP 5 mM (pH 7.4, Sigma) was used as an intracellular solution. The protocol for T-type calcium channel activity that is activated at low voltage is as follows. A micro-glass electrode with resistance of 3-4 MΩ wherein the above-prepared intracellular solution was filled was pricked into a single cell, to make a whole-cell recording mode. Thereafter, the cell membrane potential was fixed to −100 mV, and then the inward current due to the T-type calcium channel activity when hypopolarizing to −30 mV (50 ms duration) was measured every 10 seconds.
Each compound to be tested was dissolved in 100% dimethylsulfoxide (DMSO) to make a 10 mM stock solution. The effect of the compound on the T-type calcium channel current compound was initially examined in the stock solution with the 1000-times diluted concentration of 10 μM (containing 0.1% DMSO) and then examined in the solution with the concentration for IC50 measurement (mostly 0.1 to 100 μM), to obtain an IC50 value. More specifically, the cells were treated in each compound together with the extracellular solution for 30 to 60 seconds, and the inhibition level of peak current induced by the compound was calculated as a percentage, to obtain the % inhibition value as shown in Table 4.

T1 sequence (O43497 whole entry): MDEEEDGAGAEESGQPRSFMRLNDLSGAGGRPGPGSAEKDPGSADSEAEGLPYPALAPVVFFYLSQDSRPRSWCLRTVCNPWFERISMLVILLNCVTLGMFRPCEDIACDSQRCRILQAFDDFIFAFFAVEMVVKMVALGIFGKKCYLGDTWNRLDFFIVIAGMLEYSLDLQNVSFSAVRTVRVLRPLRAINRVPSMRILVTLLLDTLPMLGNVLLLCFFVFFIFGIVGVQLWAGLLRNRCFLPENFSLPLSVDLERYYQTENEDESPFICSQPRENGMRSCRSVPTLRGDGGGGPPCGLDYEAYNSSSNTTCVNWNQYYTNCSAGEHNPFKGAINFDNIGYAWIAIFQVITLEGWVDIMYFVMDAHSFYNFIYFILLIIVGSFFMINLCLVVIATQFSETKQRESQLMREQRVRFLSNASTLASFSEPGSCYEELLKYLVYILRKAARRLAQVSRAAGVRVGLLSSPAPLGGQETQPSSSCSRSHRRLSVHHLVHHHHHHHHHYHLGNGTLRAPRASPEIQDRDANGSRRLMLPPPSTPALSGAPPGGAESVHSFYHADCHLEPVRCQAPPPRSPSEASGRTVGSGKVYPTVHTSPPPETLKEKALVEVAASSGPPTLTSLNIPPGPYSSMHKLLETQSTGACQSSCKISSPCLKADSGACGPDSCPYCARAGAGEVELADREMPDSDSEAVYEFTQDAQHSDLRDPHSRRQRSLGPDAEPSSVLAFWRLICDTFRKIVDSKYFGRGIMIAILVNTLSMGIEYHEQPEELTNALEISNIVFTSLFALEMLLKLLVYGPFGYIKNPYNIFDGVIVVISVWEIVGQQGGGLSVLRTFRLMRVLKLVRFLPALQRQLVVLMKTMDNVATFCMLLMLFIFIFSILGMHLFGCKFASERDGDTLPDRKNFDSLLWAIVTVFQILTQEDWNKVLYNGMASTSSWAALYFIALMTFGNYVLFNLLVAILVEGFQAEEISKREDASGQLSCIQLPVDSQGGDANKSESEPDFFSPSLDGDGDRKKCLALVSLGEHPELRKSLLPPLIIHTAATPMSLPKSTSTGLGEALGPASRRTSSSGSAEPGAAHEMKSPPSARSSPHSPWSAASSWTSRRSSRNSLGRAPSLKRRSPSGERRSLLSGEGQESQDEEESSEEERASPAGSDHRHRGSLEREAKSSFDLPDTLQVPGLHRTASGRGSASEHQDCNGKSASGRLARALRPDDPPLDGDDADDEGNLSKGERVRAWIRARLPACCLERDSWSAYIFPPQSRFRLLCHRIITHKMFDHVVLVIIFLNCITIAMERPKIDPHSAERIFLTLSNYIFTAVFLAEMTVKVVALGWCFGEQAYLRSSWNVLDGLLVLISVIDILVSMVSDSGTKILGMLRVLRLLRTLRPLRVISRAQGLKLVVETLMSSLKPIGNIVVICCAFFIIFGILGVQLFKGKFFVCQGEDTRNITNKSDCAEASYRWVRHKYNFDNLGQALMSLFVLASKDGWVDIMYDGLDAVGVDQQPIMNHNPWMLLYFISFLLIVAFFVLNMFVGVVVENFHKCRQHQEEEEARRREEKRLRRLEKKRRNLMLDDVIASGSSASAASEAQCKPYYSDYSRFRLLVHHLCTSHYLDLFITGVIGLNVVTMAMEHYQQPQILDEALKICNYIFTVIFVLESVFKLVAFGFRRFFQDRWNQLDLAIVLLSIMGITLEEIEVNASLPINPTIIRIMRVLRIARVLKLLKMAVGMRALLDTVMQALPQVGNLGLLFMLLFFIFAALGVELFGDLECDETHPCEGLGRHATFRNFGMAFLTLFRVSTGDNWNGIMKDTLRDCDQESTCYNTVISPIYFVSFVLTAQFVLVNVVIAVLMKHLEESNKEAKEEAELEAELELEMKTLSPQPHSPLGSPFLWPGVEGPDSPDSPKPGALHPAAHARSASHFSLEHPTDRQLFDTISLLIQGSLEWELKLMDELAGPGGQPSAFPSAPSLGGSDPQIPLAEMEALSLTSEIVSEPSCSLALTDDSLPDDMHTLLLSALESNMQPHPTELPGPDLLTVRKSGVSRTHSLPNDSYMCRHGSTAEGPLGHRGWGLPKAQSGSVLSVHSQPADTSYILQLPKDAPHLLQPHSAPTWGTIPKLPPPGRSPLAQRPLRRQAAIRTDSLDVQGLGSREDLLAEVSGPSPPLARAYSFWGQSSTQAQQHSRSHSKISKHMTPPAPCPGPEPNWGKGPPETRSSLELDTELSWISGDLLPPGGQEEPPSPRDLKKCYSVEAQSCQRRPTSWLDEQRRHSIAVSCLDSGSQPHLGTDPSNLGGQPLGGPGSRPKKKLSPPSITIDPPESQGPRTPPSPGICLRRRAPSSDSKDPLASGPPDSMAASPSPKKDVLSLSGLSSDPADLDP

Substance: (2-cyclohexylimino-3-methyl-1,3-thiazolidine-4-yl)-N-(4-chloro-2-fluorophenyl)-acetamide hydrochloride [KHG23361]
- FDSS (% inhibition)/10uM [1]: 62.4%
- HEK293cell (% Inhibition) 10 μM [2]: 71.4 ± 3.4%
- IC50 [2]: 4090 ± 700 nM

Substance: [2-(1-adamantyl)imino-3-methyl-1,3-thiazolidine-4-yl]-N-(4-fluorophenyl)-acetamide hydrochloride [KHG24237]
- FDSS (% inhibition)/10uM [1]: 74.81%
- HEK293cell (% Inhibition) 10 μM [2]: 91.2 ± 3.1%
- IC50 [2]: 770 ± 30 nM

Substance: (2-cyclohexylimino-3-methyl-1,3-thiazolidine-4-yl)-N-(3,5-dichlorophenyl)-acetamide hydrochloride [KHG23356]
- FDSS (% inhibition)/10uM [1]: 60.46%
- HEK293cell (% Inhibition) 10 μM [2]: 97.0 ± 0.7%
- IC50 [2]: 230 ± 10 nM

Substance: (2-cyclohexylimino-3-methyl-1,3-thiazolidine-4-yl)-N-(3-trifluoromethylphenyl)-acetamide hydrochloride [KHG24084]
- FDSS (% inhibition)/10uM [1]: 58.61%
- HEK293cell (% Inhibition) 10 μM [2]: 82.2 ± 1.4%
- IC50 [2]: 2790 ± 110 nM

Substance: [2-(1-adamantyl)imino-3-methyl-1,3-thiazolidine-4-yl]-N-(4-chlorophenyl)-acetamide hydrochloride [KHG24238]
- FDSS (% inhibition)/10uM [1]: 73.31%
- HEK293cell (% Inhibition) 10 μM [2]: 95.9 ± 1.8%
- IC50 [2]: 530 ± 20 nM

Substance: (2-cyclohexylimino-3-methyl-1,3-thiazolidine-4-yl)-N-(2-trifluoromethylphenyl)-acetamide hydrochloride [KHG24083]
- FDSS (% inhibition)/10uM [1]: 47.92%
- HEK293cell (% Inhibition) 10 μM [2]: 76.5 ± 2.3%
- IC50 [2]: 3630 ± 540 nM

Substance: [2-(1-adamantyl)imino-3-methyl-1,3-thiazolidine-4-yl]-N-(4-phenoxyphenyl)-acetamide hydrochloride [KHG24244]
- FDSS (% inhibition)/10uM [1]: 53.67%
- HEK293cell (% Inhibition) 10 μM [2]: 90.6 ± 3.6%
- IC50 [2]: 920 ± 80 nM

Substance: (2-cycloheptylimino-3-methyl-1,3-thiazolidine-4-yl)-N-(2-fluoro-5-nitrophenyl)-acetamide hydrochloride [KHG24129]
- FDSS (% inhibition)/10uM [1]: 61.39%
- HEK293cell (% Inhibition) 10 μM [2]: 90.0 ± 0.4%
- IC50 [2]: 1570 ± 110 nM

Substance: [2-(1-adamantyl)imino-3-methyl-1,3-thiazolidine-4-yl]-N-(4-methylphenyl)-acetamide hydrochloride [KHG24235]
- FDSS (% inhibition)/10uM [1]: 61.65%
- HEK293cell (% Inhibition) 10 μM [2]: 93.2 ± 1.9%
- IC50 [2]: 1170 ± 80 nM

Substance: (2-cyclohexylimino-3-methyl-1,3-thiazolidine-4-yl)-N-(4-chlorobenzyl)-acetamide hydrochloride [KHG24113]
- FDSS (% inhibition)/10uM [1]: 54.13%
- HEK293cell (% Inhibition) 10 μM [2]: 64.8 ± 1.4%
- IC50 [2]: 5400 ± 410 nM

Substance: (2-cycloheptylimino-3-methyl-1,3-thiazolidine-4-yl)-N-(2,4-difluorophenyl)-acetamide hydrochloride [KHG24127]
- FDSS (% inhibition)/10uM [1]: 49.69%
- HEK293cell (% Inhibition) 10 μM [2]: 80.8 ± 0.6%
- IC50 [2]: 2660 ± 330 nM

Substance: (2-cycloheptylimino-3-methyl-1,3-thiazolidine-4-yl)-N-(4-phenoxyphenyl)-acetamide hydrochloride [KHG24123]
- FDSS (% inhibition)/10uM [1]: 76.6%
- HEK293cell (% Inhibition) 10 μM [2]: 94.2 ± 2.0%
- IC50 [2]: 1090 ± 200 nM
